The source of these data is patent US20180369426A1, “COMPOSITIONS COMPRISING FLUORESCENT DYES ASSOCIATED WITH VIRAL COMPONENTS FOR NERVE IMAGING” (priority 2008, published 2018).

Structures are written as SMILES.

For this test, the system named is footpad nerves. The test is described as follows: Mouse footpad injection, ICG fluorescence imaging of nerves (Example 3). The conditions noted are these: 10 μL into footpad, imaged 2 hours after injection, back dissected (FIG. 3A). Type of test: in vivo. As for the experimental part: Example 3 is a comparison of imaging with a fluorescent dye alone versus a fluorescent dye bound to the virus. Unless otherwise specified, all images are digital images obtained from a CCD camera.
A mouse ([…]) was briefly anesthetized by halothane inhalation. The right footpad of the mouse was injected with 10 μL of ICG, phosphate buffered saline (PBS) and a virus mutant, HSV-2 ΔRR (“ICG/PBS/HSV-2 ΔRR mixture”). The left footpad was injected with 10 μl of ICG/PBS mixture as a control. The same concentration of ICG was present in both mixtures.
2 hours after footpad injections, the mouse was anesthetized and then euthanized with interperitoneal injection of sodium pentobarbital. ICG fluorescence images were acquired first of the intact mouse and then at various stages of dissection.

For `CC1(C)C(/C=C/C=C/C=C/C=C2\N(CCCCS(=O)(=O)O)c3ccc4ccccc4c3C2(C)C)=[N+](CCCCS(=O)(=O)[O-])c2ccc3ccccc3c21` [ICG, indocyanine green], the “extent of fluorescence after footpad injection” value is listed as “limited to the left foot itself”.
